Measurements reported in a melting point compilation (Tetko et al.).

| melting point [°C] | Compound |
| --- | --- |
| 121 to 123 | COc1cc(-c2nnc(CCl)o2)cc(OC)c1OC |
| 75 to 77 | Clc1nc(CN2CCCCC2)nc2sc3c(c12)CCC3 |
| 200 to 202 | CCNC(=O)N1CCc2c(cccc2-n2nnc(C(=O)O)c2C)C1 |
| 149 to 151 | CC(C)S(=O)(=O)c1ccccc1C(=O)O |
| 135 to 137 | COC(=O)c1c(-c2ccc(F)cc2)csc1N |
| 109 to 111 | CS(=O)(=O)c1ccc(C2CNCCO2)cc1 (configuration not stated) |
| 264 to 266 | NC(=O)c1cc2ccccc2c(Cl)n1 |
| 244 to 246 | Cc1ccc2nc(-c3cccc(C)c3O)[nH]c2c1 |
| 63 to 65 | CCCS(=O)(=O)Nc1cccc(N)c1 |
| 44 to 46 | COc1ccccc1CC(C)(C)C(=O)O |
| 135 to 137 | O=C(NC1CC1)C1CCNCC1 |
| 136 to 138 | CC(NC(=O)CCC(=O)O)C(=O)c1ccc(Br)cc1 (configuration not stated) |
| 134 to 136 | S=C1NC2CCCCC2N1 (configuration not stated) |
| 98 to 100 | O=C(c1ccsc1)N1CCCNCC1 |
| 68 to 70 | CC(C)Nc1cc(F)ccc1[N+](=O)[O-] |
| 124 to 126 | N#Cc1ccc(-c2cnc(CCl)o2)cc1 |
| 128 to 130 | O=C(CCl)NC(=O)NCc1ccco1 |
| 326 to 328 | N#Cc1ccc(-c2nc3ccccc3[nH]2)cc1 |
| 204 to 206 | Cc1ccccc1CNc1ccc2[nH]c(=O)[nH]c2c1 |
| 319 to 321 | O=C1COc2ncc(C(=O)O)cc2N1 |
| 109 to 111 | Cc1ncc(Br)c(N)n1 |
| 97 to 99 | NCc1ccccc1N1CCCC(C(N)=O)C1 (configuration not stated) |
| 106 to 108 | O=S(=O)(c1ccc(Cl)nc1)N(Cc1ccccc1)Cc1ccccc1 |
| 209 to 211 | CC1(C)Cc2cc(C(=O)O)sc2-c2ccccc21 |
| 130 to 132 | COc1cc(NC(C)=O)ccc1C(C)=O |

| melting point [°C] | Compound |
| --- | --- |
| 114 to 116 | Nc1nc(C2CC2)c(Cc2ccccc2F)s1 |
| 147 to 149 | O=C(O)C1CC2CCCCC2N1C(=O)c1ccc(F)cc1 (configuration not stated) |
| 102 to 104 | O=C(O)C1CC(=O)N(c2cccc(C(F)(F)F)c2)C1 (configuration not stated) |
| 144 to 146 | Nc1sccc1C(=O)NC1CC1 |
| 71 to 73 | CN(C)C(C#N)c1cc[nH]c1 (configuration not stated) |
| 170 to 172 | O=C(NCc1cccc(Br)c1)NC1(C(=O)O)CCCC1 |
| 113 to 115 | O=C(O)CCC(=O)c1ccc(F)cc1F |
| 193 to 195 | CNS(=O)(=O)c1ccc(-c2ccc(Cl)c(Cl)c2)c(C(=O)O)c1 |
| 105 to 107 | O=C(O)Cc1cnn(-c2ccccc2)n1 |
| 53 to 55 | Cc1nn(Cc2ccccc2)c(Cl)c1CCl |
| 47 to 49 | CNCC1CCN(CC(O)c2ccccc2)CC1 (configuration not stated) |
| 153 to 155 | NNC(=O)Nc1ccc(Cl)cc1Cl |
| 189 to 191 | Cc1cc(C(=O)O)c2c(C)nn(C(C)(C)C)c2n1 |
| 208 to 210 | CCCCNc1ccc(S(=O)(=O)N2CCCC2)cc1N |
| 287 to 289 | Cc1ccn2c(N)nnc2c1 |
| 69 to 71 | COC(=O)CCCc1csc(N)n1 |
| 97 to 99 | N#CC1(N2CCN(C(=O)CCl)CC2)CCCCC1 |
| 191 to 193 | CC(C)(C)n1ncc2c(=O)[nH]c(Cl)nc21 |
| 122 to 124 | C/C(=N/O)c1ccc2c(c1)CCO2 |
| 149 to 151 | COc1cc(C(=O)O)ccc1OCc1ccccn1 |
| 74 to 76 | NC(=O)CN1CCC(N)CC1 |
| 57 to 59 | CC(C)(C)OC(=O)N1CCN(CC(O)c2ccco2)CC1 (configuration not stated) |
| 74 to 76 | CCNC(=O)c1ccc(C)c(N)c1 |
| 39 to 41 | COCC(=O)c1ccc(F)c(F)c1 |
| 169 to 171 | O=C(CCl)NC(=O)NC12CC3CC(CC(C3)C1)C2 |

| melting point [°C] | Compound |
| --- | --- |
| 87 to 89 | Cc1ccc(C)n1Cc1ccccc1Cl |
| 113 to 115 | CC1CCN(CC(C)C(=O)NN)CC1 (configuration not stated) |
| 97 to 99 | CC(=O)NCCc1ccc(C(=O)CCl)cc1F |
| 183 to 185 | CC(=O)Nc1c[nH]c(C)c1C(=O)O |
| 226 to 228 | Cc1nc(-c2cc(C(=O)O)cs2)cs1 |
| 219 to 221 | Cc1[nH]nc(C(N)=O)c1N |
| 169 to 171 | CC(N)(C(=O)O)c1ccccc1 (configuration not stated) |
| 99 to 101 | CN(C)C(=O)Sc1ccc2c(c1)CCCC2=O |
| 188 to 190 | Cc1ccc(S(=O)(=O)N(C)c2ccc(C(=O)O)cc2)cc1 |
| 132 to 134 | CC(C)c1ccc2cc(C(=O)O)[nH]c2c1 |
| 249 to 251 | Cc1c(C(=O)O)oc2ccc(Br)cc12 |
| 43 to 45 | CC(C)(C)OC(=O)NCCCCC(=O)O |
| 127 to 129 | NCc1noc(-c2ccsc2)n1 |
| 235 to 237 | COc1ccc(-c2nnc(N)o2)cc1OC |
| 161 to 163 | Cc1noc(N)n1 |
| 92 to 94 | N#CCC(=O)NC1CCCC1 |
| 124 to 126 | CC1=NN(CC(C)C)C(=O)C1 |
| 153 to 157 | Cc1ccc(C(=O)c2c(N)sc3c2CCC3)cc1 |
| 120 to 122 | CC(C(=O)O)c1ccc2ccccc2c1 (configuration not stated) |
| 232 to 234 | Nc1c(Br)cc(Cl)cc1C(=O)O |
| 116 to 118 | CCOc1ccc(NS(=O)(=O)c2ccc(C)c(N)c2)cc1 |
| 83 to 85 | COCc1cc([N+](=O)[O-])ccc1N |
| 124 to 126 | N#CCC(=O)Nc1ccccc1Cl |
| 129 to 131 | O=C(O)c1ccnc(C2CCCC2)n1 |
| 215 to 217 | N#CC(C(=O)CCl)c1nc(-c2ccccc2)cs1 (configuration not stated) |

| melting point [°C] | Compound |
| --- | --- |
| 111 to 113 | COc1cccc(CNC(N)=O)c1 |
| 144 to 146 | Nc1nc2c(OC(F)F)cccc2s1 |
| 98 to 100 | COc1cccc(CNC(=O)n2ccnc2)c1 |
| 53 to 57 | ClCc1ncc(-c2ccc(Cl)cc2)o1 |
| 89 to 91 | Cc1cc(Br)cc([N+](=O)[O-])c1O |
| 147 to 149 | ClCc1csc(-c2ncccn2)n1 |
| 83 to 85 | COC(=O)NC(C(=O)O)C(C)C (configuration not stated) |
| 149 to 151 | COc1cc(S(N)(=O)=O)ccc1[N+](=O)[O-] |
| 216 to 218 | O=C1OC(=O)c2cc([N+](=O)[O-])cc3cc([N+](=O)[O-])cc1c23 |
| 173 to 175 | NS(=O)(=O)CCS(=O)(=O)c1ccc(F)cc1 |
| 191 to 193 | Cc1nc(-c2cccs2)ccc1C(=O)O |
| 148 to 150 | CCn1cc(Br)cc1C(=O)O |
| 65 to 67 | CN(C)C(=O)c1ccc(Cl)cc1N |
| 175 to 177 | N#Cc1ccncc1C(=O)O |
| 113 to 115 | CCN(CC)C(=O)Nc1ccc(C(C)=O)cc1 |
| 132 to 134 | CN1CCN(C(=O)C2CNc3ccccc3O2)CC1 (configuration not stated) |
| 149 to 151 | O=C(c1c(Cl)cccc1Cl)N1CCNCC1 |
| 139 to 141 | O=C1CCCC(=O)N1c1ncc(Br)s1 |
| 126 to 128 | NNS(=O)(=O)c1ccc(Cl)c([N+](=O)[O-])c1 |
| 86 to 88 | CC(Cl)C(=O)NCC(=O)c1ccccc1 (configuration not stated) |
| 184 to 186 | O=C(O)c1cccc(-n2cccn2)n1 |
| 182 to 184 | CCN(CC)S(=O)(=O)c1cc(C(=O)O)ccc1OC |
| 64 to 66 | Cc1cc(Br)ncc1[N+](=O)[O-] |
| 73 to 75 | CN(CC#N)C(=O)c1ccccc1 |

| Compound | melting point [°C] |
| --- | --- |
| Cc1cccc2[nH]cc(CCN)c12 | 108 to 110 |
| O=S(=O)(Cl)C1CCOCC1 | 34 to 36 |
| CC(C)(C)NC(=O)NC(=O)CCl | 109 to 112 |
